Source: patent publication US11730720B2, “ALK5 inhibitors” (THERAVANCE BIOPHARMA R&D IP, LLC, priority 2018, dated 2023)

What was measured:
[1] = system: TGF-β-stimulated SMAD3 phosphorylation in BEAS-2B cells; experiment: Cellular ALK5 potency assay, inhibition of TGF-β stimulated pSMAD3 formation in BEAS-2B cells; format: cell-based; details: Homo sapiens, inhibition of TGF-β (10 ng/mL) stimulated pSMAD3 formation, 1 hour compound incubation, read-out: BEAS2B pIC50 (converted)
Method: Example 255: Cellular ALK5 Potency Assay to Measure pIC50, Inhibition of TGF-β Stimulated pSMAD3 Formation in BEAS-2B Cells
The potency of compounds of the present disclosure for inhibition of TGF-β-stimulated SMAD3 phosphorylation was measured in BEAS-2B cells, a human lung epithelial cell line. TGF-β signals through activin receptor-like kinase 5 (ALK5) immediately prior to SMAD3 phosphorylation.
BEAS-2B cells were grown using 50% DMEM (Life Technologies) and 50% F-12 (Life Technologies) media, supplemented with 10% Fetal Bovine Serum (ATCC), 25 mM HEPES (Life Technologies), and 1×Pen-Strep (Life Technologies). Cells were cultured in a humidified incubator set at 37° C., 5% CO2, and trypsonized using 0.25% Trypsin with 0.5% polyvinylpyrrolidone (PVP).
For the assay, BEAS-2B cells were seeded at 7,500 cells/well (25 μL/well) in a 384-well plate and cultured overnight. Before dosing, growth media was aspirated and the wells were rinsed with HBSS Buffer (HBSS with Calcium and Magnesium, Life Technologies) supplemented with 25 mM HEPES (Life Technologies) and 1% Bovine Serum Albumin (Roche). Compounds were serially diluted in DMSO, then further diluted with supplemented HBSS Buffer (50 μL/well) to create a compound plate 3× of the final assay concentration, at 0.3% DMSO. The diluted compounds were then added to the cells (8 μL/well) and incubated at 37° C., 5% CO2 for 1 hour. After the compound incubation, TGF-β (R&D Systems) reconstituted in supplemented HBSS Buffer was added to the cells ([…], final concentration 10 ng/mL) and incubated for a further 30 minutes, after which the cells were immediately lysed with AlphaLISA lysis buffer (PerkinElmer). AlphaLISA Acceptor and Detector beads (PerkinElmer) were added 2 hours apart, then incubated overnight to be read the next day. The potency of the compound was determined through analysis of dose-dependent quantified changes in pSMAD3 signal from baseline (non-compound treated TGF-β stimulated cells). Data are expressed as pIC50 (negative decadic logarithm IC50) values.

[2] = target: T1, recombinant human ALK5 (TGF-βR1) protein (Homo sapiens, UniProt P36897); experiment: Biochemical ALK5 (TGF-βR1) assay to measure pKi (LANCE Ultra ULight kinase assay); details: apparent pKi, converted from pIC50 using the Cheng-Prusoff equation
T1 construct: purchased Life Technologies PR9075A
T1 sequence (P36897 34-503): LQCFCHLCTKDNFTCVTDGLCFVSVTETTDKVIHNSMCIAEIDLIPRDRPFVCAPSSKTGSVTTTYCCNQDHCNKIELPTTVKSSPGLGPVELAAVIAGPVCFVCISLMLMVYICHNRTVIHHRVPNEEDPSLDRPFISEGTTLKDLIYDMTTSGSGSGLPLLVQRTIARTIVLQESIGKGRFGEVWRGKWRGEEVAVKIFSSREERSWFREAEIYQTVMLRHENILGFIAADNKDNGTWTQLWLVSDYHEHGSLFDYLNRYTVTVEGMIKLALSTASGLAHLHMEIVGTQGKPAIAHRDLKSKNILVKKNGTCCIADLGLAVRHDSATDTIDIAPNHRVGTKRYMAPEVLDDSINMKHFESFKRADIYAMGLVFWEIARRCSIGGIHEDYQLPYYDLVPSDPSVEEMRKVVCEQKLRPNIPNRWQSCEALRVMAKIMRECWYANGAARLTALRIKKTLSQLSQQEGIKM
Method: Example 254: Biochemical ALK5 (TGF-βR1) Assay to Measure pKi
The assays were performed in a 384-well plate (24 columns×16 wells/rows). An Echo® 550 Liquid Handler (Labcyte) was used to prepare various intermediate concentrations of compounds of the present disclosure in 100% DMSO. From the intermediate concentrations, a range of concentrations (from 10 μM to 25 pM corresponding to volumes up to 105 nL) were prepared and ejected into a final assay plate to be used to create individual dose response curves for each of the subject compounds. To a separate column within the assay plate, 105 nL of DMSO in each well was used to establish a maximum assay signal. Additionally, 105 nL of 100 μM SD-208, a selective TGF-βR1 inhibitor (Catalog #S7624, Selleck Chemicals), was used in another column of wells to establish a minimal assay signal.
With a multidrop dispenser, 8 μL of enzyme mixture (1.25× final) was added to each well. The enzyme mixture consisted of 250 pM ALK5 enzyme and 62.5 nM peptide substrate (LANCE® (lanthanide chelate excite) Ultra ULight™-DNA Topoisomerase 2-alpha (Thr1342)) prepared in assay buffer (50 mM HEPES, 10 mM MgCl2, 1 mM EGTA, 0.01% Tween-20, pH 7.5 at room temperature) with 2 mM DTT added prior to use. The plate was then sealed with an adhesive seal and allowed to equilibrate for 60 minutes at room temperature.
Next, 2 μL of 125 μM ATP (5× final, 125 μM ATP prepared in assay buffer with 2 mM DTT) was added to the incubated mixtures, covered with a MicroClime® Environmental Lid (Product No. LLS-0310, Labcyte) and immediately transferred to 37° C. The reactions were allowed to proceed at 37° C. for 60 minutes before terminating with the addition of 10 μL of detection antibody (LANCE® (lanthanide chelate excite) Ultra Europium-anti-phospo-DNA Topoisomerase 2-alpha (Thr1342)) in detection mixture (12 mM EDTA, 4 nM detection antibody prepared in detection buffer (50 mM Tris-HCl, 150 mM NaCl, 0.5% BSA (Fraction V), pH 7.0)) at room temperature. The plate was then read on a Perkin Elmer EnVision Plate Reader using europium specific reader settings with excitation and emission wavelengths set to 320 or 340 nm and 665 nm, respectively.
For dose-response analyses, percent inhibition versus compound concentrations were plotted, and pIC50 values were determined from a 4-parameter robust fit model with GraphPad Prism V5 Software (GraphPad Software, Inc., La Jolla, Calif.). This model obtains pIC50 values by fitting the sigmodial dose-response (variable slope) equation to the data. Results were expressed as pIC50 (negative logarithm of IC50) and subsequently converted to pKi (negative logarithm of dissociate constant, K) using the Cheng-Prusoff equation.
The higher the value of pKi (lower value of Ki), the greater the inhibition of ALK5 activity.

Q: For `CN1CCN(C2CCN(c3cnc4ccc(-c5c(-c6cc(Cl)ccc6F)nc6ccccn56)cc4c3)CC2)CC1` [Compound 19-5, 6-[2-(5-chloro-2-fluoro-phenyl)imidazo[1,2-a]pyridin-3-yl]-3-[4-(4-methylpiperazin-1-yl)-1-piperidyl]quinoline], which IC50 [1] is on record?
A: The IC50 was 200 to 1260 nM.

Q: What about the Ki [2] of the same molecule?
A: Its Ki is 0.0398 to 0.316 nM.

Q: What does the source list for `CNCCn1cc(-c2cnc3ccc(-c4c[nH]nc4-c4ccc(F)c(F)c4)nc3c2)cn1` [Compound 8-12, 2-(4-(6-(3-(3,4-difluorophenyl)-1H-pyrazol-4-yl)-1,5-naphthyridin-3-yl)-1H-pyrazol-1-yl)-N-methylethan-1-amine]?
A: IC50 [1]: ≤ 20 nM; Ki [2]: ≤ 0.0316 nM

Q: What does the source list for `Fc1ccc(Cl)cc1-c1n[nH]cc1-c1ccc2ncc(-c3ncc4n3CCNC4)cc2n1` [Compound 1-114, 2-[3-(5-chloro-2-fluoro-phenyl)-1H-pyrazol-4-yl]-7-(5,6,7,8-tetrahydroimidazo[1,5-a]pyrazin-3-yl)-1,5-naphthyridine]?
A: IC50 [1]: 25.1 to 158 nM; Ki [2]: 0.0398 to 0.316 nM

Q: How did the IC50 [1] turn out when `CNCCn1cc(-c2cnc3ccc(-c4c[nH]nc4-c4cccc(COC)c4)nc3c2)nn1` [Compound 14-15, 2-(4-(6-(3-(3-(methoxymethyl)phenyl)-1H-pyrazol-4-yl)-1,5-naphthyridin-3-yl)-1H-1,2,3-triazol-1-yl)-N-methylethan-1-amine] was run?
A: The IC50 was 25.1 to 158 nM.

Q: And the Ki [2]?
A: Its Ki is 0.398 to 3.16 nM.

Q: With `CC(C)N1CCN(CCNc2cnc3ccc(-c4nc[nH]c4-c4ccc(F)c(F)c4)nc3c2)CC1` [Compound 9-2, 6-[5-(3,4-difluorophenyl)-1H-imidazol-4-yl]-N-[2-(4-isopropylpiperazin-1-yl)ethyl]-1,5-naphthyridin-3-amine] as the molecule, how does the IC50 [1] read?
A: The IC50 was 25.1 to 158 nM.

Q: What about the Ki [2] of the same molecule?
A: The Ki was 3.98 to 31.6 nM.

Q: Which results are given for `C[C@@H]1CN(c2cnc3ccc(-c4c[nH]nc4-c4cc(Cl)ccc4F)nc3c2)[C@H](C)CN1C` (racemic) [Compound 1-75, 2-[3-(5-chloro-2-fluoro-phenyl)-1H-pyrazol-4-yl]-7-[rac-(2R,5R)-2,4,5-trimethylpiperazin-1-yl]-1,5-naphthyridine]?
A: IC50 [1]: 25.1 to 158 nM; Ki [2]: 3.98 to 31.6 nM

Q: Which IC50 [1] does the source give for `NCCN1CCN(c2cnc3ccc(-c4c[nH]nc4-c4cc(Cl)c(F)cc4F)nc3c2)CC1` [Compound 6-36, 2-[4-[6-[3-(5-chloro-2,4-difluoro-phenyl)-1H-pyrazol-4-yl]-1,5-naphthyridin-3-yl]piperazin-1-yl]ethanamine] here?
A: Its IC50 is 25.1 to 158 nM.

Q: And the Ki [2]?
A: The Ki was 0.0398 to 0.316 nM.

Q: With `Fc1ccc(Cl)cc1-c1[nH]cnc1-c1ccc2ncc(Nc3ccc(N4CCN(Cc5ccccc5)CC4)cn3)cc2n1` [Compound 2-27, N-[5-(4-benzylpiperazin-1-yl)-2-pyridyl]-6-[5-(5-chloro-2-fluoro-phenyl)-1H-imidazol-4-yl]-1,5-naphthyridin-3-amine] as the molecule, how does the IC50 [1] read?
A: The IC50 was 25.1 to 158 nM.

Q: What about the Ki [2] of the same molecule?
A: Its Ki is 3.98 to 31.6 nM.

Q: Which IC50 [1] does the source give for `COCc1cccc(-c2n[nH]cc2-c2ccc3ncc(-c4cn[nH]c4)cc3n2)c1` [Compound 14-9, 2-[3-[3-(methoxymethyl)phenyl]-1H-pyrazol-4-yl]-7-(1H-pyrazol-4-yl)-1,5-naphthyridine] here?
A: Its IC50 is ≤ 20 nM.

Q: What about the Ki [2] of the same molecule?
A: Its Ki is 0.398 to 3.16 nM.

Q: How did the IC50 [1] turn out when `Fc1ccccc1-c1[nH]nnc1-c1ccc2ncc(-c3c[nH]nc3C(F)(F)F)cc2n1` [Compound 12-2, 2-[5-(2-fluorophenyl)-1H-triazol-4-yl]-7-[3-(trifluoromethyl)-1H-pyrazol-4-yl]-1,5-naphthyridine] was run?
A: The IC50 was 25.1 to 158 nM.

Q: What about the Ki [2] of the same molecule?
A: The Ki was 3.98 to 31.6 nM.

Q: How did the IC50 [1] turn out when `CNCCn1cc(-c2cnc3ccc(-c4c(-c5ccc(F)c(F)c5)[nH]c5cccnc45)nc3c2)cn1` [Compound 27-1, 2-[4-[6-[2-(3,4-difluorophenyl)-1H-pyrrolo[3,2-b]pyridin-3-yl]-1,5-naphthyridin-3-yl]pyrazol-1-yl]-N-methyl-ethanamine] was run?
A: The IC50 was 25.1 to 158 nM.

Q: And the Ki [2]?
A: The Ki was 3.98 to 31.6 nM.

Q: How did the IC50 [1] turn out when `CNC1CCN(c2cnc3ccc(-c4c[nH]nc4-c4cccc(COC)c4)nc3c2)CC1` [Compound 14-1, 1-(6-(3-(3-(methoxymethyl)phenyl)-1H-pyrazol-4-yl)-1,5-naphthyridin-3-yl)-N-methylpiperidin-4-amine] was run?
A: Its IC50 is 25.1 to 158 nM.

Q: What about the Ki [2] of the same molecule?
A: Its Ki is 3.98 to 31.6 nM.

Q: Which results are given for `Fc1cc(F)c(-c2n[nH]cc2-c2ccc3ncc(-c4cnc5n4CCN5)cc3n2)cc1Cl` [Compound 6-54, 2-[3-(5-chloro-2,4-difluoro-phenyl)-1H-pyrazol-4-yl]-7-(6,7-dihydro-5H-imidazo[1,2-a]imidazol-3-yl)-1,5-naphthyridine]?
A: IC50 [1]: 25.1 to 158 nM; Ki [2]: 0.0398 to 0.316 nM

Q: Which results are given for `Fc1ccc(Cl)cc1-c1n[nH]cc1-c1ccc2ncc(N3CCn4nc(C5=CCNC5)nc4C3)cc2n1` [Compound 1-85, 2-(3-(5-chloro-2-fluorophenyl)-1H-pyrazol-4-yl)-7-(2-(2,5-dihydro-1H-pyrrol-3-yl)-5,6-dihydro-[1,2,4]triazolo[1,5-a]pyrazin-7(8H)-yl)-1,5-naphthyridine]?
A: IC50 [1]: 25.1 to 158 nM; Ki [2]: ≤ 0.0316 nM

Q: Which results are given for `Fc1cc(F)c(-c2n[nH]cc2-c2ccc3ncc(NC[C@H]4CCCCN4)cc3n2)cc1Cl` [Compound 6-11, 6-[3-(5-chloro-2,4-difluoro-phenyl)-1H-pyrazol-4-yl]-N-[[(2R)-2-piperidyl]methyl]-1,5-naphthyridin-3-amine]?
A: IC50 [1]: 25.1 to 158 nM; Ki [2]: 0.398 to 3.16 nM

Q: How did the IC50 [1] turn out when `Fc1cc(F)c(-c2[nH]cnc2-c2ccc3ncc(NCCN4CCNCC4)cc3c2)cc1Cl` [Compound 22-5, 6-[5-(5-chloro-2,4-difluoro-phenyl)-1H-imidazol-4-yl]-N-(2-piperazin-1-ylethyl)quinolin-3-amine] was run?
A: The IC50 was 25.1 to 158 nM.

Q: What about the Ki [2] of the same molecule?
A: The Ki was 0.0398 to 0.316 nM.

Q: Which Ki [2] does the source give for `CNC(=O)C1CN(c2cnc3ccc(-c4c[nH]nc4-c4cc(Cl)ccc4F)nc3c2)CCN1C` (racemic) [Compound 1-81, rac-(2S)-4-[6-[3-(5-chloro-2-fluoro-phenyl)-1H-pyrazol-4-yl]-1,5-naphthyridin-3-yl]-N,1-dimethyl-piperazine-2-carboxamide] here?
A: Its Ki is 0.398 to 3.16 nM.
